Blank lines part the entries; values can stand above or below the compound they belong to.
Experiments:
[1] = tested on: Hepatitis B virus; test: Inhibition of HBV in Huh7 cells by ELISA; type: functional, organism-based; conditions: Huh-7
[2] = Cytotoxicity against human HuH7 cells; type: cell-based, Huh-7
[3] = Cytotoxicity against human HepAD38 cells; type: cell-based; conditions: read-out: TC50 (the source's name)
[4] = tested on: Hepatitis B virus; test: Inhibition of HBV DNA replication in HepAD38 cells; type: functional, organism-based
[5] = Selectivity index, ratio of cytotoxicity against human HepG2.2.15 cells to IC50 for HBV DNA replication in HepG2.2.15 cells; type: toxicity, cell-based; conditions: read-out: Selectivity Index
[6] = tested on: Hepatitis B virus; test: Inhibition of HBV DNA replication in HepG2.2.15 cells; type: functional, organism-based
[7] = tested on: Hepatitis B virus; test: Inhibition of HBV DNA replication in AML-12 cells after 48 hrs by dot blot analysis; type: functional, organism-based; conditions: AML12, 48 h
[8] = tested on: Hepatitis B virus; test: Inhibition of HBV DNA replication in HepDES19 cells after 48 hrs by dot blot analysis; type: functional, organism-based; conditions: HepDES19, 48 h
[9] = Cytotoxicity against human HepDES19 cells after 48 hrs by MTT assay; type: cell-based
[10] = Cytotoxicity against mouse AML-12 cells after 48 hrs by MTT assay; type: cell-based
[11] = tested on: Hepatitis B virus; test: Inhibition of HBV DNA replication; type: functional, organism-based
[12] = tested on: Hepatitis B virus; test: Inhibition of HBV virions secretion; type: functional, organism-based
[13] = tested on: Hepatitis B virus; test: Inhibition of HBV antigen secretion; type: functional, organism-based
[14] = Cytotoxicity against human HepG2.2.15 cells assessed as cell viability; type: cell-based, HepG2 2.2.15; conditions: read-out: TC50 (the source's name)
[15] = tested on: Hepatitis B virus; test: Inhibition of HBV antigen secretion in HepDE19 cell after 7 days by ELISA; type: functional, organism-based; conditions: HepDE19, 168 h
[16] = Cytotoxicity against human HepDE19 cells after 7 days by MTT assay; type: cell-based
[17] = Ratio of CC50 for human HepG2.2.15 cells to IC50 for HBV DNA replication in HepG2.2.15 cells; set-up: species or system HepG2 2.2.15
[18] = tested on: Hepatitis B virus; test: Inhibition of HBV antigen secretion in HepG2.2.15 cells; type: functional, organism-based
[19] = Selectivity index, ratio of cytotoxicity against human HepG2.2.15 cells to IC50 for HBV antigen secretion in HepG2.2.15 cells; type: toxicity, cell-based; conditions: read-out: Selectivity Index
[20] = tested on: Hepatitis B virus; test: Inhibition of HBV DNA replication in HepG2 cells by southern blot analysis; type: functional, organism-based

Structure (SMILES): O=C1OC(OCc2ccccc2)=N/C1=C\c1ccccc1
- EC50 [1]: 5400 nM
- CC50 [2]: > 50000 nM

Structure (SMILES): COc1ccccc1/C(Br)=C(\NC(=O)c1ccc([N+](=O)[O-])cc1)C(=O)N1CCCCC1
- CC50 [3]: > 61000 nM
- EC50 [4]: 130 nM
- EC90 [4]: 920 nM

Structure (SMILES): Cc1cc(C)n2[nH]c(=S)nc2n1
- EC50 [1]: 120 nM
- CC50 [2]: > 50000 nM

Structure (SMILES): O=C(NCc1ccccc1)c1ccc(Cl)c(S(=O)(=O)N2CCCCCC2)c1
- EC50 [7]: 1700 nM
- EC50 [8]: 1600 nM
- CC50 at 48 h [9]: > 50000 nM
- CC50 at 48 h [10]: > 50000 nM

Structure (SMILES): Cc1nc2cc(NC(=O)c3ccc(S(=O)(=O)N(C)Cc4ccccc4)cc3)ccc2s1
- EC50 [15]: 350 nM
- CC50 at 168 h [16]: > 2570 nM

Structure (SMILES): O=C(CN(c1cc(C(F)(F)F)ccc1Cl)S(=O)(=O)c1ccccc1)NCc1ccncc1
- EC50 [15]: 4550 nM
- CC50 at 168 h [16]: > 50000 nM

Structure (SMILES): CN(C)C(=O)c1ccc2c(c1)nc(-c1nccs1)n2C
- Ratio CC50/IC50 [17]: >90
- IC50 [6]: 1100 nM

Structure (SMILES): CCCCC/N=C(\c1ccc(=O)n(CCCCC)c1)c1ccc(OC)cc1O
- IC50 [13]: 5000 nM
- IC50 [11]: 30000 nM

Structure (SMILES): O=C(N/C(C(=O)N1CCCCC1)=C(/Cl)c1ccccc1)c1ccccc1
- CC50 [3]: > 81000 nM
- EC50 [4]: 1200 nM
- EC90 [4]: 13000 nM

More lines, main results first:

- IC50 [6]: 36800 nM
Structure (SMILES): CCOC(=O)c1cc2cc(OC)c(O)c(CN3CCCC3)c2nc1CSc1ccccc1
- selectivity ratio [5]: 2.8

- EC50 [7]: 300 nM
- EC50 [8]: 100 nM
Structure (SMILES): CCC(C)NS(=O)(=O)c1ccc(F)c(C(=O)NCc2ccc(F)c(F)c2)c1 (stereo unspecified)
- CC50 at 48 h [9]: > 50000 nM
- CC50 at 48 h [10]: > 50000 nM

- IC50 [11]: 140 nM
Structure (SMILES): CC(C)Cc1sc(-c2nccs2)nc1C(=O)NCc1ccc(F)cc1

- EC50 [12]: 600 nM
- EC50 [13]: 1500 nM
Structure (SMILES): Clc1cc2nc(N3CCN(c4ccccn4)CC3)[nH]c2cc1Cl

- IC50 [6]: 150 nM
Structure (SMILES): CCOC(=O)C1=C(C)NC(c2ncccc2F)=NC1c1ccc(F)cc1Cl (stereo unspecified)
- CC50 [14]: 50000 nM

- EC50 [7]: 390 nM
- EC50 [8]: 140 nM
Structure (SMILES): O=C(NCc1ccc(F)c(F)c1)c1cc(S(=O)(=O)NC2CCCC2)ccc1F
- CC50 at 48 h [9]: > 50000 nM
- CC50 at 48 h [10]: > 50000 nM

- IC50 [6]: 30 nM
Structure (SMILES): CCOC(=O)C1=C(C)NC(c2nccs2)=N[C@H]1c1ccc(F)cc1Cl
- CC50 [14]: 25000 nM

- IC50 [6]: 1700 nM
Structure (SMILES): COc1cc2nc3c(cc2c(Cn2ccnc2C)c1O)CSc1cc(F)ccc1-3
- selectivity ratio [5]: 60.3

- IC50 [18]: 14200 nM
- IC50 [6]: 2600 nM
Structure (SMILES): CCOC(=O)c1cc2cc(OC)c(O)c(CN3C=NCC3)c2nc1C[S+]([O-])c1ccc(F)c(F)c1 (stereo unspecified)
- selectivity ratio [5]: 61.6
- selectivity ratio [19]: 11.3

- IC50 [20]: 12 nM
Structure (SMILES): CCOC(=O)C1=C(CN2CCOCC2)NC(c2nccs2)=NC1c1ccc(F)cc1Br (stereo unspecified)

From ChEMBL document CHEMBL3739304, “Non-nucleoside anti-HBV agents: advances in structural optimization and mechanism of action investigations” (Medchemcomm, 2015)
